The values below come from patent US7671054B1, “Reverse-turn mimetics and method relating thereto” (Choongwae Pharma Corporation, priority 2001, dated 2010).

The IC50 is the point on the concentration scale where inhibition reaches its midpoint.

Bounds are passed on as bounds.

The test system of this assay is TCF4/β-catenin transcription (TOPFlash) in SW480 cells. Description: Reporter gene assay (TOPFlash luciferase). The assay is classed as cell-based. The following applies: Homo sapiens, SW480, Table 4; Reporter gene assay as described in Example 6; read-out: IC50. On the procedure: SW480 cells were transfected with the usage of Superfect™ transfect reagent (Qiagen, 301307). Cells were trypsinized briefly 1 day before transfection and plated on 6 well plate (5×10^5 cells/well) so that they were 50-80% confluent on the day of transfection.
Four microgram (TOPFlash) and one microgram (pRL-null) of DNAs were diluted in 150 μl of serum-free medium, and 30 μl of Superfect™ transfect reagent was added. The DNA-Superfect mixture was incubated at room temperature for 15 min, and then, 1 ml of 10% FBS DMEM was added to this complex for an additional 3 hours of incubation. While complexes were forming, cells were washed with PBS twice without antibiotics.
The DNA-Superfect™ transfect reagent complexes were applied to the cells before incubating at 37° C. at 5% CO2 for 3 hours. After incubation, recovery medium with 10% FBS was added to bring the final volume to 1.18 ml. After 3 hours incubation, the cells were harvested and reseeded to 96 well plate (3×10^4 cells/well). After overnight incubation at 37° C. at 5% CO2, the cells were treated with Compound A for 24 hours. Finally, the activity was checked by means of luciferase assay (Promega, E1960).
Background: In a reporter assay the amount or activity of a reporter protein is the signal.
With `C=CCN1CC(=O)N2[C@@H](Cc3ccc(O)cc3)C(=O)N(Cc3ccc(Cl)c(N4CCOCC4)c3)C[C@@H]2N1C(=O)NCc1ccccc1` [Compound 139], the IC50 is 1.1 ± 0.1 µM.

With `CN1CC(=O)N2[C@@H](CN(Cc3cccc4ccccc34)C(=O)[C@H]2c2ccc(O)cc2)N1C(=O)NCc1ccccc1` [Compound 36], the IC50 was 12.5 µM.

Take `CN1CC(=O)N2[C@@H](Cc3ccc(O)cc3)C(=O)N(Cc3ccc4ccccc4c3)C[C@@H]2N1C(=O)NCc1ccccc1` [Compound 24]: the IC50 amounted to 5 µM.

On to `CN(C)c1cc(F)c(F)cc1CN1C[C@H]2N(C(=O)CN(C)N2C(=O)NCc2ccccc2)[C@@H](Cc2ccc(O)cc2)C1=O` [Compound 49], for which the IC50 came to 1.4 µM.

Regarding `C=CCN1CC(=O)N2[C@@H](Cc3ccc(O)cc3)C(=O)N(Cc3cccc4c3OCCN4C)C[C@@H]2N1C(=O)NCc1ccccc1` [Compound 158], the IC50 is 0.9 ± 0.02 µM.

For the compound `C=CCN1CC(=O)N2[C@@H](Cc3ccc(O)cc3)C(=O)N(Cc3cccc4c3OCCO4)C[C@@H]2N1C(=O)NCc1ccccc1` [Compound 203], the half-inhibitory concentration (IC50) came out at 0.7 ± 0.1 µM.

Consider `CN1CC(=O)N2C(CN(Cc3ccc(F)cc3F)C(=O)[C@@H]2Cc2ccc(O)cc2)N1C(=O)NCc1ccccc1` (stereo partly shown) [Compound 13], for which the IC50 was found to be 6.4 µM.

On to `CN1CC(=O)N2C(Cc3ccc(O)cc3)C(=O)N(Cc3cccc4ccccc34)CC2N1C(=O)NCc1ccc(Cl)c(Cl)c1` (stereo not shown) [Compound 3], for which the IC50 is 13.9 µM.

Take `CCCN1CC(=O)N2[C@@H](Cc3ccc(O)cc3)C(=O)N(Cc3ccccc3)C[C@@H]2N1C(=O)NCc1ccccc1` [Compound 168]: the IC50 was found to be 3.5 ± 0.3 µM.

For `C=CCN1CC(=O)N2[C@@H](Cc3ccc(O)cc3)C(=O)N(Cc3cccc4sc(Cl)nc34)C[C@@H]2N1C(=O)NCc1ccccc1` [Compound 217], the IC50 is < 1.6 µM.

On to `CN1CC(=O)N2[C@@H](Cc3ccc(O)cc3)C(=O)N(Cc3ccccc3C(F)(F)F)C[C@@H]2N1C(=O)NCc1ccccc1` [Compound 32], for which the IC50 amounted to 4.1 µM.

In the case of `CCN(CC)c1cccc(CN2C[C@H]3N(C(=O)CN(C)N3C(=O)NCc3ccccc3)[C@@H](Cc3ccc(O)cc3)C2=O)c1` [Compound 47], the IC50 was determined as 3.5 µM.

Regarding `C=CCN1CC(=O)N2[C@@H](Cc3ccc(O)cc3)C(=O)N(Cc3cccc4c3OCO4)C[C@@H]2N1C(=O)NCc1ccccc1` [Compound 202], the IC50 came out at 0.7 ± 0.1 µM.

With `C=CCN1CC(=O)N2[C@@H](Cc3ccc(O)cc3)C(=O)N(Cc3cccc(N4CCOCC4)c3)C[C@@H]2N1C(=O)NCc1ccccc1` [Compound 127], the IC50 is 1.8 ± 0.2 µM.

Regarding `CN1CC(=O)N2[C@@H](Cc3ccc(O)cc3)C(=O)N(Cc3cccc4c3cnn4C)C[C@@H]2N1C(=O)NCc1ccccc1` [Compound 56], the IC50 stood at 9.3 ± 1.6 µM.

For `COc1ccccc1CN1C[C@H]2N(C(=O)CN(C)N2C(=O)NCc2ccccc2)[C@@H](Cc2ccc(O)cc2)C1=O` [Compound 26], the IC50 stood at 7.1 µM.

Take `C[C@H](c1ccc(F)c(N(C)C)c1)N1C[C@H]2N(C(=O)CN(C)N2C(=O)NCc2ccccc2)[C@@H](Cc2ccc(O)cc2)C1=O` [Compound 59]: the IC50 is 5.3 ± 1.3 µM.

`C=CCN1CC(=O)N2[C@@H](CN([C@H](C)c3ccccc3)C(=O)[C@@H]2Cc2ccc(O)cc2)N1C(=O)NCc1ccccc1` [Compound 184]: the IC50 was determined as 1.2 ± 0.1 µM.

In the case of `[2H]c1cc(C[C@H]2C(=O)N(Cc3cccc4ccccc34)C[C@H]3N2C(=O)CN(C)N3C(=O)NCc2ccccc2)cc([2H])c1O` [Compound 166], the IC50 came out at 3.3 ± 0.2 µM.

For `C=CCN1CC(=O)N2[C@@H](CC3(O)C=CC(=O)C=C3)C(=O)N(Cc3ccc(F)cc3F)C[C@@H]2N1C(=O)NCc1ccccc1` [Compound 181], the IC50 was determined as 6.7 ± 0.6 µM.

Turning to `C#CCN1CC(=O)N2[C@@H](Cc3ccc(O)cc3)C(=O)N(Cc3cccc(OCCN4CCOCC4)c3)C[C@@H]2N1C(=O)NCc1ccccc1` [Compound 131], the IC50 worked out at 2.2 ± 0.3 µM.

For the compound `CN1CC(=O)N2[C@@H](Cc3ccc(O)cc3)C(=O)N(Cc3ccc4cn[nH]c4c3)C[C@@H]2N1C(=O)NCc1ccccc1` [Compound 89], the IC50 is 13.9 ± 0.9 µM.

With `C=CCN1CC(=O)N2[C@@H](Cc3ccc(O)cc3)C(=O)N(Cc3ccc(F)c4scnc34)C[C@@H]2N1C(=O)NCc1ccccc1` [Compound 223], the IC50 amounted to 0.6 ± 0.1 µM.

Consider `C#CCN1CC(=O)N2[C@@H](Cc3ccc(O)cc3)C(=O)N(Cc3cccc(N4CCOCC4)c3)C[C@@H]2N1C(=O)NCc1ccccc1` [Compound 118], for which the IC50 turned out to be 0.8 ± 0.1 µM.

Turning to `CN1CC(=O)N2[C@@H](Cc3ccc(NC=O)cc3)C(=O)N(Cc3cccc4ccccc34)C[C@@H]2N1C(=O)NCc1ccccc1` [Compound 68], the IC50 came to 4.3 ± 0.8 µM.

Take `CN1CC(=O)N2[C@@H](Cc3ccc(O)cc3)C(=O)N(Cc3cccc4cnn(Cc5cccc(N)c5)c34)C[C@@H]2N1C(=O)NCc1ccccc1` [Compound 92]: the IC50 came to 3.8 ± 1.2 µM.

Consider `CN1CC(=O)N2[C@@H](Cc3ccc(O)cc3)C(=O)N(Cc3ccccc3SC(F)(F)F)C[C@@H]2N1C(=O)NCc1ccccc1` [Compound 31], for which the IC50 stood at 11.9 µM.

With `CN(c1cccc(CN2C[C@H]3N(C(=O)CN(C)N3C(=O)NCc3ccccc3)[C@@H](Cc3ccc(O)cc3)C2=O)c1)C1CC1` [Compound 57], the IC50 turned out to be 9.4 ± 1.5 µM.

As to `CN1CC(=O)N2[C@@H](Cc3ccc(O)cc3)C(=O)N(Cc3ccc(F)cc3F)[C@@H](COC=O)[C@@H]2N1C(=O)NCc1ccccc1` [Compound 81], the IC50 is 66.1 ± 6.8 µM.

As for `CN(Cc1cccc(CN2C[C@H]3N(C(=O)CN(C)N3C(=O)NCc3ccccc3)[C@@H](Cc3ccc(O)cc3)C2=O)c1)C1CCOCC1` [Compound 120], the half-maximal inhibitory concentration (IC50) was 34.4 ± 4.9 µM.

For `CC(C)N(C)c1cc([C@@H](C)N2C[C@H]3N(C(=O)CN(C)N3C(=O)NCc3ccccc3)[C@@H](Cc3ccc(O)cc3)C2=O)ccc1F` [Compound 62], the IC50 amounted to 9.7 ± 1.7 µM.

For `C=CCN1CC(=O)N2[C@@H](Cc3ccc(O)cc3)C(=O)N(Cc3cc(F)c(F)cc3N(C)C)C[C@@H]2N1C(=O)NCc1ccccc1` [Compound 162], the half-inhibitory concentration (IC50) was 1.8 ± 0.6 µM.

With `Cc1cc(C)c(N(C)C)c(CN2C[C@H]3N(C(=O)CN(C)N3C(=O)NCc3ccccc3)[C@@H](Cc3ccc(O)cc3)C2=O)c1` [Compound 51], the IC50 stood at 4.8 µM.

On to `COc1cccc(CN2CC3N(C(=O)CN(C)N3C(=O)NCc3ccccc3)[C@@H](Cc3ccc(O)cc3)C2=O)c1OC` (stereo partly shown) [Compound 23], for which the IC50 came out at 10.7 µM.

Take `CN1CC(=O)N2[C@@H](Cc3ccc(O)cc3)C(=O)N(Cc3cccc4cnn(CCN5CCOCC5)c34)C[C@@H]2N1C(=O)NCc1ccccc1` [Compound 94]: the IC50 was 7.6 ± 0.6 µM.

Turning to `CN1CC(=O)N2[C@@H](Cc3ccc(O)cc3)C(=O)N(Cc3cccc4cnn(Cc5ccc(N)cc5)c34)C[C@@H]2N1C(=O)NCc1ccccc1` [Compound 104], the IC50 came out at 4.6 ± 0.4 µM.

Take `C[C@@H]1[C@H]2N(C(=O)CN(C)N2C(=O)NCc2ccccc2)[C@@H](Cc2ccc(O)cc2)C(=O)N1Cc1ccc(Cl)c(N(C)C)c1` [Compound 83]: the IC50 was 46.4 ± 3.7 µM.

Consider `C[C@H](c1ccc(F)cc1F)N1CC2N(C(=O)CN(C)N2C(=O)NCc2ccccc2)[C@@H](Cc2ccc(O)cc2)C1=O` (stereo partly shown) [Compound 195], for which the IC50 was determined as 22.3 ± 2.3 µM.

Consider `CN1CC(=O)N2[C@@H](Cc3ccc(O)cc3)C(=O)N(Cc3cccc4cnn(Cc5ccccc5[N+](=O)[O-])c34)C[C@@H]2N1C(=O)NCc1ccccc1` [Compound 74], for which the IC50 is 2.1 ± 0.2 µM.

For the compound `CN(C)c1cc(Cl)ccc1CN1C[C@H]2N(C(=O)CN(C)N2C(=O)NCc2ccccc2)[C@@H](Cc2ccc(O)cc2)C1=O` [Compound 45], the IC50 came to 2.2 µM.
